Test results: US7732374B2, “Fungicidal mixtures based on prothioconazole and an insecticide” (priority 2002, dated 2010)

Test system: Sphaerotheca fuliginea
Assay: Protective activity against mildew of cucumbers caused by Sphaerotheca fuliginea
Type: in vivo
Conditions: inoculated 20 hours after spraying, evaluated after 7 days
Description: Evaluation was carried out by determining the infected leaf areas in percent. These percentages were converted into efficacies. The efficacy (W) was calculated as follows using Abbot's formula:
[formula] • α corresponds to the fungal infection of the treated plants in % and • β corresponds to the fungal infection of the untreated (control) plants in %
An efficacy of 0 means that the infection level of the treated plants corresponds to that of the untreated control plants; an efficacy of 100 means that the treated plants were not infected.
20 hours after the spray coating had dried on, the plants were inoculated with an aqueous spore suspension of mildew of cucumbers (Sphaerotheca fuliginea). The plants were then cultivated in a greenhouse at 20-24° C. and 60-80% relative atmospheric humidity for 7 days. The extent of mildew development was then determined visually in % infection of the cotyledon area.
The visually determined values for the percentage of infected leaf areas were converted into efficacies in % of the untreated control. An efficacy of 0 means the same degree of infection as the untreated control, an efficacy of 100 means 0% infection.

[1] = 0.015 ppm active compound in the spray liquor
[2] = 0.06 ppm active compound in the spray liquor
[3] = 0.25 ppm active compound in the spray liquor
[4] = 1 ppm active compound in the spray liquor

Row | Structure (SMILES) | Efficacy in % of the untreated control [1] | Efficacy in % of the untreated control [2] | Efficacy in % of the untreated control [3] | Efficacy in % of the untreated control [4] | Efficacy in % of the untreated control (4 ppm active compound in the spray liquor)
1 | OC(Cc1ccccc1Cl)(Cn1nc[nH]c1=S)C1(Cl)CC1 (stereo not drawn) [Compound I, 2-[2-(1-chlorocyclopropyl)-3-(2-chlorophenyl)-2-hydroxypropyl]-2,4-dihydro-[1,2,4]-triazole-3-thione] | 0% | 0% | 5% |  | 
2 | N#Cc1nn(-c2c(Cl)cc(C(F)(F)F)cc2Cl)c(N)c1[S+]([O-])C(F)(F)F (stereo not drawn) [Compound II, fipronil] | 0% | 0% | 0% | 0% | 
3 | CCOP(=S)(OCC)Oc1nc(Cl)c(Cl)cc1Cl [Compound III, chlorpyrifos] | 0% | 0% | 0% |  | 
4 | CN1COCN(Cc2cnc(Cl)s2)/C1=N\[N+](=O)[O-] [Compound IV, thiamethoxam] | 0% | 0% | 0% | 0% | 0%
